Source: US12466809B2, “CDK2/5 degraders and uses thereof” (DANA-FARBER CANCER INSTITUTE, INC., priority 2019, dated 2025)

How the values were obtained:
CDK5/p25 = CDK5/p25 (Homo sapiens (Human), UniProt Q00535); experiment: Invitrogen Z'-LYTE kinase assay CDK5/p25 (assay ID 318, Km app, 10-point titration); assay type: biochemical; details: CDK5/p25, Km app ATP
Text: (§1) CDK2 and CDK5 IC50 data were attained through the use of Invitrogen™ commercial assays. The method for CDK2 (assay ID: 315, kinase|Z'-LYTE™|CDK2/Cyclin A|Km app) used a 10-point titration. The method for CDK5 (assay ID: 318, kinase|Z'-LYTE™|CDK5/p25|Km app) used a 10-point titration.

CDK5 = CDK5 (Homo sapiens (Human), UniProt Q00535); experiment: Knockdown of CDK2/5 in OVCAR8 cells, immunoblot: CDK5; assay type: cell-based; details: various concentrations, 6 hours
Chain of CDK5 (Q00535 whole entry): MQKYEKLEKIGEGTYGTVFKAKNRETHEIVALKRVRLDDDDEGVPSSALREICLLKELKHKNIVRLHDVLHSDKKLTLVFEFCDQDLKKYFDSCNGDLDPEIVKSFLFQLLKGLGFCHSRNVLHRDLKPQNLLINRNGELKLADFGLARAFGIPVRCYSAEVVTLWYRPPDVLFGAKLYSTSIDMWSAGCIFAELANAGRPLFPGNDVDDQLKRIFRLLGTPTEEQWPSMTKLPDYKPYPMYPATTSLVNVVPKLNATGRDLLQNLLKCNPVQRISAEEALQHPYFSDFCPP

CDK2 = CDK2 (Homo sapiens (Human), UniProt P24941); experiment: Knockdown of CDK2/5 in OVCAR8 cells, immunoblot: CDK2; assay type: cell-based; details: various concentrations, 6 hours
CDK2/Cyclin A = CDK2/Cyclin A (Homo sapiens (Human), UniProt P24941); experiment: Invitrogen Z'-LYTE kinase assay CDK2/Cyclin A (assay ID 315, Km app, 10-point titration); assay type: biochemical; details: Km app ATP
Text: as §1

CDK9 = CDK9 (Homo sapiens (Human), UniProt P50750); experiment: Knockdown of CDKs in Jurkat cells, immunoblot: CDK9; assay type: cell-based; details: 0.25 μM, 6 hours
Chain of CDK9 (P50750 whole entry): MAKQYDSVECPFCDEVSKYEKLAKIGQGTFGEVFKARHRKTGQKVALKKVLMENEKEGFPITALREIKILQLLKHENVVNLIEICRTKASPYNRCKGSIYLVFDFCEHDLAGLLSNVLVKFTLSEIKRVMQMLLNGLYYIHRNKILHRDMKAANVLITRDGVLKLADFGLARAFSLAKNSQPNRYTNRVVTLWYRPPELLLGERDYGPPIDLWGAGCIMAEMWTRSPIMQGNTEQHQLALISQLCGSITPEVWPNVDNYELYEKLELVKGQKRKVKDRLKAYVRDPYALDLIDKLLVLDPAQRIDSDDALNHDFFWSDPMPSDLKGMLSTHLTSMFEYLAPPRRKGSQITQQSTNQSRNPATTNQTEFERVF
Protocol: Jurkat acute T cell leukemia cells were treated with 0, 0.1 μM, 1 μM, and 10 μM of compounds 1-7 or 0.25 μM THAL-SNS-032 (a known CDK9 degrader, as a positive control for CDK9 degradation) for 6 hours, and then lysed and immunoblotted with antibodies to CDK1, CDK2, CDK5, CDK7, CDK9, CDK12, CDK13 and R-Actin (FIG. 1A-FIG. 2B).

Chain of CDK5/p25 (Q00535 whole entry): as the sequence (Q00535 whole entry) above
Chain of CDK5/p25 (Q15078 99-307 partner): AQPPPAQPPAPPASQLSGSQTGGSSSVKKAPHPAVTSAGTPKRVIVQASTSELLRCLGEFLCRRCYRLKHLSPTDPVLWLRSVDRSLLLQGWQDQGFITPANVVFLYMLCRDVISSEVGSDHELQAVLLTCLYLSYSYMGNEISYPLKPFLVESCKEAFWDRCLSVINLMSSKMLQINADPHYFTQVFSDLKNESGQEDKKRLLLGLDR

Structure (SMILES) | IC50 (CDK5/p25) | knockdown of CDK5 (CDK5) | knockdown of CDK2 (CDK2) | IC50 (CDK2/Cyclin A) | CDK9 degradation (CDK9)
NC(=O)c1c(F)cccc1Nc1nc(NC2CCN(S(=O)(=O)CCNC(=O)CCCCCCCCOc3cccc4c3C(=O)N(C3CCC(=O)NC3=O)C4=O)CC2)ncc1Br (centres unmarked) [Compound 5, 2-((5-bromo-2-((1-((2-(9-((2-(2,6-dioxopiperidin-3-yl)-1,3-dioxoisoindolin-4-yl)oxy)nonanamido)ethyl)sulfonyl)piperidin-4-yl)amino)pyrimidin-4-yl)amino)-6-fluorobenzamide] | 16.1 nM | selective knockdown | selective knockdown | 28.7 nM | –
Cn1ncc(Nc2nc(NC3CCN(S(=O)(=O)CCNC(=O)CCCCCCCCOc4cccc5c4C(=O)N(C4CCC(=O)NC4=O)C5=O)CC3)ncc2Br)c1C(N)=O (centres unmarked) [Compound 22, 4-((5-bromo-2-((1-((2-(9-((2-(2,6-dioxopiperidin-3-yl)-1,3-dioxoisoindolin-4-yl)oxy)nonanamido)ethyl)sulfonyl)piperidin-4-yl)amino)pyrimidin-4-yl)amino)-1-methyl-1H-pyrazole-5-carboxamide] | 5.7 nM | – | – | 5.7 nM | –
NC(=O)c1c(F)cccc1Nc1nc(Nc2ccc(S(=O)(=O)NCCOCCOCCOCCOCCNc3cccc4c3C(=O)N(C3CCC(=O)NC3=O)C4=O)cc2)ncc1Br (centres unmarked) [Compound 23, 2-((5-bromo-2-((4-(N-(14-((2-(2,6-dioxopiperidin-3-yl)-1,3-dioxoisoindolin-4-yl)amino)-3,6,9,12-tetraoxatetradecyl)sulfamoyl)phenyl)amino)pyrimidin-4-yl)amino)-6-fluorobenzamide] | 7 nM | – | – | 10.9 nM | –
Cc1cc(S(=O)(=O)NCCOCCOCCOCCOCCNC(=O)COc2cccc3c2C(=O)N(C2CCC(=O)NC2=O)C3=O)ccc1Nc1ncc(Br)c(Nc2cccc(F)c2C(N)=O)n1 (centres unmarked) [Compound 46, 2-((5-bromo-2-((4-(N-(1-((2-(2,6-dioxopiperidin-3-yl)-1,3-dioxoisoindolin-4-yl)oxy)-2-oxo-6,9,12,15-tetraoxa-3-azaheptadecan-17-yl)sulfamoyl)-2-methylphenyl)amino)pyrimidin-4-yl)amino)-6-fluorobenzamide] | 1.4 nM | – | – | 1.7 nM | –
CC(C)(C)c1cnc(CSc2cnc(NC(=O)C3CCN(CC(=O)NCCOCCOCCOCCNc4cccc5c4C(=O)N(C4CCC(=O)NC4=O)C5=O)CC3)s2)o1 (centres unmarked) [THAL-SNS-032] | – | – | – | – | induced CDK9 degradation

Now from value to molecule:

IC50 (CDK5/p25) | knockdown of CDK5 (CDK5) | knockdown of CDK2 (CDK2) | IC50 (CDK2/Cyclin A) | CDK9 degradation (CDK9) | Structure (SMILES)
7.1 nM | – | – | 8.1 nM | – | Cc1cc(Nc2ncc(Br)c(Nc3cccc(F)c3C(N)=O)n2)ccc1S(=O)(=O)NCCOCCOCCOCCOCCNc1cccc2c1C(=O)N(C1CCC(=O)NC1=O)C2=O (centres unmarked) [Compound 25, 2-((5-bromo-2-((4-(N-(14-((2-(2,6-dioxopiperidin-3-yl)-1,3-dioxoisoindolin-4-yl)amino)-3,6,9,12-tetraoxatetradecyl)sulfamoyl)-3-methylphenyl)amino)pyrimidin-4-yl)amino)-6-fluorobenzamide]
18.2 nM | – | – | 19.4 nM | – | Cc1cc(S(=O)(=O)NCCCCCCCCCCNC(=O)COc2cccc3c2C(=O)N(C2CCC(=O)NC2=O)C3=O)ccc1Nc1ncc(Br)c(Nc2cccc(F)c2C(N)=O)n1 (centres unmarked) [Compound 47, 2-((5-bromo-2-((4-(N-(10-(2-((2-(2,6-dioxopiperidin-3-yl)-1,3-dioxoisoindolin-4-yl)oxy)acetamido)decyl)sulfamoyl)-2-methylphenyl)amino)pyrimidin-4-yl)amino)-6-fluorobenzamide]
2.9 nM | – | – | 2 nM | – | Cc1cc(S(=O)(=O)NCCCCN2CCN(C(=O)COc3cccc4c3C(=O)N(C3CCC(=O)NC3=O)C4=O)CC2)ccc1Nc1ncc(Br)c(Nc2cccc(F)c2C(N)=O)n1 (centres unmarked) [Compound 48, 2-((5-bromo-2-((4-(N-(4-(4-(2-((2-(2,6-dioxopiperidin-3-yl)-1,3-dioxoisoindolin-4-yl)oxy)acetyl)piperazin-1-yl)butyl)sulfamoyl)-2-methylphenyl)amino)pyrimidin-4-yl)amino)-6-fluorobenzamide]
